In US9504728B2, “Dosage form” (priority 2011, dated 2016):
Like-named read-outs stand apart in the source and are kept apart here.

Assays:
in vivo = settings: CD1 mice; for AUC(0-t) / bioavailability: male, mouse; for bioavailability: read-out: Oral bioavailability F %
Experimental: For sanglifehrins, whole blood is analysed. Compounds are formulated in 5% ethanol/5% cremophor EL/90% saline for both p.o. and i.v. administration. Groups of 3 male CD1 mice are dosed with either 1 mg/kg i.v. or 5 or 10 mg/kg p.o. Blood samples (40 μL) are taken via saphenous vein, pre-dose and at 0.25, 0.5, 2, 8, and 24 hours, and diluted with an equal amount of dH20 and put on dry ice immediately. Samples are stored at −70° C. until analysis. The concentration of the sanglifehrin or parent compound in the sample is determined via LCMS as follows: 20 μL of blood:H2O (1:1, v/v)/PK sample is added with 20 μL Internal standard (hydroxyl macrocycle, 6) at 100 ng/mL, 20 μL working solution/MeOH and 150 μL of ACN, vortexed for 1 minute at 1500 rpm, and centrifuged at 12000 rpm for 5 min. The supernatant is then injected into LC-MS/MS. The time-course of blood concentrations is plotted and used to derive area under the whole blood concentration-time curve (AUC—which is directly proportional to the total amount of unchanged drug that reaches the systemic circulation). These values are used to generate PK parameters where possible.
To assess the pharmacokinetics of the compounds in an in vivo setting, compounds were dosed po at 10 or 5 mg/kg and iv at 1 mg/kg to groups of CD1 mice.
Pharmacokinetic analysis was carried out as described in the general methods.

[1] = In vitro stability in acidic and neutral conditions (SGF, SGF + pepsin, SGF + denatured pepsin, PBS); settings: for PBS % remaining after 1 hour: phosphate buffered saline pH 7.3, 37° C.; for SGF % remaining after 1 hour: simulated gastric fluid pH 1.2, 37° C.
Experimental: 1 mM DMSO solutions were made of compounds to be tested and mixed on vibrax to ensure compound was fully dissolved.
PBS Solution: 2 tablets of Phosphate Buffered Saline (Dulbecco A) tablets (Oxoid, BR0014G) were added to 200 mL distilled water and stirred to mix. pH was measured at 7.28.
Simulated Gut Fluid (SGF): 300 uL conc. HCl added to 50 mL distilled water and mixed. pH was measured at 1.21.
Simulated gut fluid+pepsin: 300 uL conc. HCl and 1 g of Pepsin (from Porcine gastric mucosa, Sigma) were added to 50 mL distilled water and mixed by stirring for 1 hr.
SGF+denatured pepsin: 900 uL of Acidic Enzyme Solution taken into a 2 mL eppendorf tube and heated at 99° C. in a water bath for 30 mins.
Acidic Enzyme and Acidic Denatured Enzyme solutions were made fresh each day, whereas PBS and Acid Solutions were stored at 4° C. when not in use.
Eppendorfs containing 900 uL of test solutions were pre-warmed in a 37° C. water bath. At t=0, 100 uL of test compound (1 mM DMSO solution) was added to test solution and mixed. 100 uL was taken immediately and mixed into 900 uL acetonitrile in an amber glass LC vial. 50-100 uL of the sample was analysed by HPLC, integrating the compounds' UV peaks to determine degradation over time. Sanglifehrin A was measured at its λmax of 240 nm; 33, 45 and 24 were measured at their λmax of 276 nm.
Further samples were taken in the same manner for analysis at approximately t=0.33, 0.67, 1.0, 2.67, and 4.67 hr. A final analysis was run at t=>30 to confirm end point of reaction.
Controls of test compound DMSO solutions in 900 uL DMSO were also prepared and treated in the same manner, with samples analysed at t=0, t=8 and t=>30 hr. Half lives were calculated from the data generated.
Stability of compounds was analysed in simulated gastric fluid, pH1.2 (SGF) and phosphate buffered saline, pH7.3 (PBS).

cyclophilin A (CypA) = cyclophilin A (CypA) (Homo sapiens, UniProt P62937); settings: cited from earlier work
calcineurin = settings: in words; Zenke et al. 2001; cited from earlier work
[2] = iv, whole blood, 1 mg/kg i.v., read-out: AUClast after 1 mg/kg i.v. dose
[3] = po, whole blood, 10 mg/kg p.o., read-out: AUClast after 10 mg/kg p.o. dose
[4] = whole blood, po, p.o. 10 or 5 mg/kg vs i.v. 1 mg/kg
[5] = in vivo, iv, whole blood, 1 mg/kg i.v., read-out: AUClast after 1 mg/kg i.v. dose
[6] = in vivo, po, p.o. 10 or 5 mg/kg vs i.v. 1 mg/kg
[7] = in vivo, po, whole blood, 10 mg/kg p.o., read-out: AUClast after 10 mg/kg p.o. dose

Chain of cyclophilin A (CypA) (P62937 whole entry): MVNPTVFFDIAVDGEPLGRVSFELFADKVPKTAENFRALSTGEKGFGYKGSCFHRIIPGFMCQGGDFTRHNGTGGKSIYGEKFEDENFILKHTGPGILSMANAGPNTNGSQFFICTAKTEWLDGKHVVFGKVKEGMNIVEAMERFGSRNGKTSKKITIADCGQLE

Compound	AUC(0-t) (in vivo; [2]) [ng·h/mL]	AUC(0-t) (in vivo; [3]) [ng·h/mL]	bioavailability (in vivo; [4]) [%]	other results
CNC(=O)/C=C/C=C(\C)[C@@H]1C/C=C/C=C/[C@H](O)[C@H](C)[C@@H](O)[C@@H](CCC(C)=O)C(=O)N[C@@H](C(C)C)C(=O)N[C@@H](Cc2cccc(OC)c2)C(=O)N2CCCC(N2)C(=O)O1 (some centres unmarked) [Compound 37]	1220	4.76	0.04	–
CC(=O)CC[C@H]1C(=O)N[C@@H](C(C)C)C(=O)N[C@@H](Cc2cccc(O)c2)C(=O)N2CCCC(N2)C(=O)O[C@H](/C(C)=C/C=C/C(=O)N(CC(C)C)CC(C)C)C/C=C/C=C/[C@H](O)[C@H](C)[C@H]1O (some centres unmarked) [Compound 41]	1940	453	2.4	–
CCCC(=O)/C=C/C=C(\C)[C@@H]1C/C=C/C=C/[C@H](O)[C@H](C)[C@@H](O)[C@@H](CCC(C)=O)C(=O)N[C@@H](C(C)C)C(=O)N[C@@H](Cc2cccc(O)c2)C(=O)N2CCCC(N2)C(=O)O1 (some centres unmarked) [Compound 39]	1660	111	0.9	–
CC(=O)CC[C@H]1C(=O)N[C@@H](C(C)C)C(=O)N[C@@H](Cc2cc(O)cc(F)c2)C(=O)N2CCCC(N2)C(=O)O[C@H](/C(C)=C/C=C/C(=O)N2CCCCO2)C/C=C/C=C/[C@H](O)[C@H](C)[C@H]1O (some centres unmarked) [Compound 24]	45500	–	3.6	SGF + denatured pepsin, % remaining after 1 hour ([1]; 37° C., 1 hour): 30%; SGF + Pepsin, % remaining after 1 hour ([1]; SGF + pepsin, 37° C., 1 hour): 23%; half-life at 100 µM ([1]; phosphate buffered saline (PBS), pH 7.3): > 1440 min; PBS % remaining after 1 hour ([1]; 1 hour): 100%; half-life at 100 µM ([1]; simulated gastric fluid (SGF), pH 1.2): < 19.8 min; SGF % remaining after 1 hour ([1]; 1 hour): 18%
CNC(=O)/C=C/C=C(\C)[C@@H]1C/C=C/C=C/[C@H](O)[C@H](C)[C@@H](O)[C@@H](CCC(C)=O)C(=O)N[C@@H](C(C)C)C(=O)N[C@@H](Cc2cccc(O)c2)C(=O)N2CCCC(N2)C(=O)O1 (some centres unmarked) [Compound 36]	4920	17.8	0.04	–
CON(C)C(=O)/C=C/C=C(\C)[C@@H]1C/C=C/C=C/C=C(\C)[C@@H](O)[C@@H](CCC(C)=O)C(=O)N[C@@H](C(C)C)C(=O)N[C@@H](Cc2cc(O)cc(F)c2)C(=O)N2CCCC(N2)C(=O)O1 (some centres unmarked) [Compound 26]	5500	–	1.5	AUC(0-t) (in vivo; po, whole blood, 5 mg/kg p.o., read-out: AUClast after 5 mg/kg p.o. dose): 421 ng·h/mL
CC(=O)CC[C@H]1C(=O)N[C@@H](C(C)C)C(=O)N[C@@H](Cc2cccc(O)c2)C(=O)N2CCCC(N2)C(=O)O[C@H](/C(C)=C/C=C/C(=O)Nc2ccc(-c3ccccc3)cc2)C/C=C/C=C/[C@H](O)[C@H](C)[C@H]1O (some centres unmarked) [Compound 44]	2500	–	0	–
CC[C@H]1C[C@H](C)[C@@]2(NC1=O)O[C@@H](C[C@H](O)[C@@H](C)CC/C=C/C=C(\C)[C@@H]1C/C=C/C=C/[C@H](O)[C@H](C)[C@@H](O)[C@@H](CCC(C)=O)C(=O)N[C@@H](C(C)C)C(=O)N[C@@H](Cc3cccc(O)c3)C(=O)N3CCC[C@H](N3)C(=O)O1)[C@H](C)[C@H](O)[C@@H]2C [Sanglifehrin A, 5, Sanglifehrin A, reference compound]	–	–	–	affinity for CyPA compared to Cyclosporine A (fold higher) (cyclophilin A (CypA); relative to CsA): approximately 20 fold; Oral bioavailability F % (in vivo; p.o. 10 or 5 mg/kg vs i.v. 1 mg/kg): 1.4%; SGF + denatured pepsin, % remaining after 1 hour ([1]; 37° C., 1 hour): 49%; SGF + Pepsin, % remaining after 1 hour ([1]; SGF + pepsin, 37° C., 1 hour): 41%; PBS % remaining after 1 hour ([1]; 1 hour): 76%; SGF % remaining after 1 hour ([1]; 1 hour): 52%; inhibition of the phosphatase activity of calcineurin (calcineurin): does not inhibit
C/C(=C\CO)[C@@H]1C/C=C/C=C/[C@@H]2OC3(C)CC[C@@H](C(=O)N[C@@H](C(C)C)C(=O)N[C@@H](Cc4cccc(O)c4)C(=O)N4CCCC(N4)C(=O)O1)[C@H](O3)[C@H]2C [Compound 35]	813	11.3	0.1	–
CCN(CC)C(=O)/C=C/C=C(\C)[C@@H]1C/C=C/C=C/[C@H](O)[C@H](C)[C@@H](O)[C@@H](CCC(C)=O)C(=O)N[C@@H](C(C)C)C(=O)N[C@@H](Cc2cccc(O)c2)C(=O)N2CCCC(N2)C(=O)O1 (some centres unmarked) [Compound 34]	14000	800	0.1	–
CC(=O)CC[C@H]1C(=O)N[C@@H](C(C)C)C(=O)N[C@@H](Cc2cccc(O)c2)C(=O)N2CCCC(N2)C(=O)O[C@H](/C(C)=C/C=C/C(=O)Nc2ccccn2)C/C=C/C=C/[C@H](O)[C@H](C)[C@H]1O (some centres unmarked) [Compound 42]	–	–	–	AUC(0-t) (in vivo; [5]): 11700 ng·h/mL; bioavailability (in vivo; [6]): 0.7%; AUC(0-t) (in vivo; [7]): 919 ng·h/mL
CC(=O)CC[C@H]1C(=O)N[C@@H](C(C)C)C(=O)N[C@@H](Cc2cccc(O)c2)C(=O)N2CCCC(N2)C(=O)O[C@H](/C(C)=C/C=C/C(=O)OC(C)(C)C)C/C=C/C=C/[C@H](O)[C@H](C)[C@H]1O (some centres unmarked) [Compound 40]	4910	3880	7.8	–
CON(C)C(=O)/C=C/C=C(\C)[C@@H]1C/C=C/C=C/[C@H](O)[C@H](C)[C@@H](O)[C@@H](CCC(C)=O)C(=O)N[C@@H](C(C)C)C(=O)N[C@@H](Cc2cccc(O)c2)C(=O)N2CCCC(N2)C(=O)O1 (some centres unmarked) [Compound 33]	14300	2200	1.6	half-life at 100 µM ([1]; buffer, pH 7.3): > 1440 min; SGF + Pepsin, % remaining after 1 hour ([1]; pig, simulated gi fluid, 1 h, 100 µM): 25%; half-life at 100 µM ([1]; simulated gi fluid, pH 1.2): 39.6 min
CC(=O)CC[C@H]1C(=O)N[C@@H](C(C)C)C(=O)N[C@@H](Cc2cccc(O)c2)C(=O)N2CCCC(N2)C(=O)O[C@H](/C(C)=C/C=C/C(=O)N2CCCCO2)C/C=C/C=C/[C@H](O)[C@H](C)[C@H]1O (some centres unmarked) [Compound 45]	–	–	–	AUC(0-t) (in vivo; [5]): 15100 ng·h/mL; bioavailability (in vivo; [6]): 3.2%; AUC(0-t) (in vivo; [7]): 4840 ng·h/mL; SGF + denatured pepsin, % remaining after 1 hour ([1]; 37° C., 1 hour): 15%; SGF + Pepsin, % remaining after 1 hour ([1]; SGF + pepsin, 37° C., 1 hour): 17%; half-life at 100 µM ([1]; buffer, pH 7.3): > 1440 min; PBS % remaining after 1 hour ([1]; 1 hour): 100%; SGF % remaining after 1 hour ([1]; 1 hour): 13%; half-life at 100 µM ([1]; simulated gi fluid, pH 1.2): < 19.8 min
CON(C)C(=O)/C=C/C=C(\C)[C@@H]1C/C=C/C=C/[C@H](O)[C@H](C)[C@@H](O)[C@@H](CCC(C)=O)C(=O)N[C@@H](C(C)C)C(=O)N[C@@H](Cc2cc(O)cc(F)c2)C(=O)N2CCCC(N2)C(=O)O1 (some centres unmarked) [Compound 23]	22900	–	2.4	–
CC(=O)CC[C@H]1C(=O)N[C@@H](C(C)C)C(=O)N[C@@H](Cc2cccc(O)c2)C(=O)N2CCC[C@H](N2)C(=O)O[C@H](/C(C)=C/CO)C/C=C/C=C/[C@H](O)[C@H](C)[C@H]1O [hydroxymacrocycle, 6, hydroxymacrocycle]	–	–	–	affinity for CyPA (cyclophilin A (CypA); in words, Sedrani et al., 2003): strong affinity
CC(=O)CC[C@H]1C(=O)N[C@@H](C(C)C)C(=O)N[C@@H](Cc2cccc(O)c2)C(=O)N2CCCC(N2)C(=O)O[C@H](/C(C)=C/C=C/C(=O)N2CCOCC2)C/C=C/C=C/[C@H](O)[C@H](C)[C@H]1O (some centres unmarked) [Compound 43]	9800	8980	9.2	–
CCOC(=O)/C=C/C=C(\C)[C@@H]1C/C=C/C=C/[C@H](O)[C@H](C)[C@@H](O)[C@@H](CCC(C)=O)C(=O)N[C@@H](C(C)C)C(=O)N[C@@H](Cc2cccc(O)c2)C(=O)N2CCCC(N2)C(=O)O1 (some centres unmarked) [Compound 38]	5790	3090	5.5	–
